Results published in ChEMBL document CHEMBL4359925, “Rational discovery of a highly novel and selective mTOR inhibitor” (Bioorg Med Chem Lett, 2019).

Assays:
[1] = molecular target: Phosphatidylinositol 4,5-bisphosphate 3-kinase catalytic subunit alpha isoform (Homo sapiens, UniProt P42336); assay: Inhibition of PI3K alpha (unknown origin)
[2] = molecular target: Serine/threonine-protein kinase mTOR (Homo sapiens, UniProt P42345); assay: Inhibition of human mTOR measured after 30 mins in presence of ATP by Lanthascreen TR-FRET assay

Chain of Phosphatidylinositol 4,5-bisphosphate 3-kinase catalytic subunit alpha isoform (P42336 whole entry, canonical isoform): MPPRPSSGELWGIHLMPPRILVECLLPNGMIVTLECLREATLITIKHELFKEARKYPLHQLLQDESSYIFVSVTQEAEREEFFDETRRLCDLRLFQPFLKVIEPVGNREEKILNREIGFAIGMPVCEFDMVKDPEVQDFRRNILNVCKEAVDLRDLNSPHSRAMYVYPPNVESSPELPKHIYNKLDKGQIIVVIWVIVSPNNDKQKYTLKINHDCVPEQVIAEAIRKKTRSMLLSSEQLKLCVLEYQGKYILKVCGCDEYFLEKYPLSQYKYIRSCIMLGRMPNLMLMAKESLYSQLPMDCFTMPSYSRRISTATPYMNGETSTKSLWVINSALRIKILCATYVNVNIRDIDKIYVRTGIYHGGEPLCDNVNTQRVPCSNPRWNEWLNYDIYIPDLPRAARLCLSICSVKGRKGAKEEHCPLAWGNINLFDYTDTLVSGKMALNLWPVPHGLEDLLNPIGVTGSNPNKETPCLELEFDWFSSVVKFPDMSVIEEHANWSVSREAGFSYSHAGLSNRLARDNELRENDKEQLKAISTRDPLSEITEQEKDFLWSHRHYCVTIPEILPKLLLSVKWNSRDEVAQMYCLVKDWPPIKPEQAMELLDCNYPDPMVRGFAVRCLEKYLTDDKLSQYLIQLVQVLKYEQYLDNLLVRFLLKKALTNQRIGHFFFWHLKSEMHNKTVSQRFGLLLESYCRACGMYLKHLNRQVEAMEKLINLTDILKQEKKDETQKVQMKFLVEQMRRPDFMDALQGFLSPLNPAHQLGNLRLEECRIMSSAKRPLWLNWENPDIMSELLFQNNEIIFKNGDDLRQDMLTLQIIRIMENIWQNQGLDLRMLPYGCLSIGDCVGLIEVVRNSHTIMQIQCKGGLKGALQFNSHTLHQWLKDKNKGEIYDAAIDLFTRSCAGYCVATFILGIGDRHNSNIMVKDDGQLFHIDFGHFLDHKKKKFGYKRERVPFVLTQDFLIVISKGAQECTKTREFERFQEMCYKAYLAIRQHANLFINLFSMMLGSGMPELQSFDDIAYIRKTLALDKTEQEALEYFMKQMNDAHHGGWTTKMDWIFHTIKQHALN

Row | IC50 [1] | IC50 [2] | SMILES
1 | 50.1 nM | 501 nM | CNC(=O)Nc1ccc(-c2ncc3c(n2)N2CCOCC2CO3)cc1 (centres undefined)
2 | 794 nM | 6.31 nM | C[C@@]12COCCN1c1nc(-c3ccc(NC(=O)NC4CC4)cc3)ncc1N(CC1CC1)C2=O
